Assays:
RP-B-02 spheroids = experiment: 3D spheroid growth assay RP-B-02; assay type: cell-based, human; settings: p<0.05
Excerpt: RP-B-01 and RP-B-02 cells were resuspended in normal growth media containing 3% Reduced Growth Factor Matrigel (BD Biosciences) at a cell density of 1,500 and 3,000 cells/well, respectively and plated in ultra-low adherence 96-well plates (Corning).
Spheroids were allowed to form and then treated on days 4, 8, and 12 following plating with media containing 5% serum, 3% Reduced Growth Factor Matrigel, and APE1/Ref-1 inhibitors. Vehicle control, DMSO, was less than 0.01% of the volume, and was equivalent in each well. On Day 15, Alamar blue reagent (LifeTechnologies) was added to each well (10 μL/well) and incubated for 24 hours.
In order to mimic tumor growth more accurately in a relevant microenvironment and in a more robust model for predicting response to treatment, a three-dimensional (3D) culture model of patient-derived RP-B-01 and RP-B-02 bladder cancer cells was used. Both RP-B-01 and RP-B-02 cell lines are transitional cell carcinoma staged as T4bN1Mx and T2bN0Mx Grade III tumors, respectively.

[1] = tested on: retinal vascular endothelial cells (RVEC); experiment: MTS proliferation assay of retinal endothelial cells; assay type: cell-based, mouse
Procedure: Inhibition of endothelial cell proliferation. […] Young adult mouse retinal tissues were dissected out and digested. Cells were plated in 24 well plates and grown to confluence, then seeded to 96 well plates for assay. Three days after seeding, the total number of cells was assayed by MTS measurement (Promega). The proliferation rate was calculated according to manufacturer's instructions. Proliferations of RECs from different groups were compared for statistical significance. APX3330 (RN3-3) blocked REC proliferation indicative of anti-blood vessel formation effects. (FIG. 10)
APX3330 10-100 μM decreased cell proliferation of retinal vascular endothelial cells (RVEC) (FIG. 11). In basal media, APX3330 inhibited REVC cell proliferation at all 4 concentrations tested, 10 μM-57%, 25 μM-93% (p<0.01).

pancreatic tumor cells = experiment: Annexin V/PI apoptosis assay in pancreatic tumor cells; assay type: cell-based
Procedure: APX3330 in combination with chemotherapeutic Gemcitabine. […] To analyze the cells for apoptosis, cells were plated and allowed to attach overnight. Cells were treated with APX3330 alone or with gemcitabine. Apoptosis was assayed about 24 and 48 hr following treatment. Cells were trypsinized, pelleted, washed in ice-cold PBS, and resuspended in 1× binding buffer [about 10 mmol/L HEPES/NaOH (pH 7.4), 140 mmol/L NaCl, 2.5 mmol/L CaCl2]. Apoptosis was analyzed using the Alexa Fluor 488 AnnexinV from Vybrant Apoptosis Assay kit in combination with propidium iodide (Molecular Probes, Eugene, Oreg.) as described previously Clinical Cancer Research 13, 260-267, Jan. 1, 2007. Cells that were strongly Annexin positive were considered positive for apoptosis. The samples were analyzed by flow cytometry in the Indiana University Cancer Center flow cytometry facility.
APX3330 in combination with Methoxyamine-pancreatic cells. […] To analyze the cells for apoptosis, cells were plated and allowed to attach overnight. […] Apoptosis was analyzed using the Alexa Fluor 488 Annexin V from Vybrant Apoptosis Assay kit in combination with propidium iodide (Molecular Probes, Eugene, Oreg.) as described previously Clinical Cancer Research 13, 260-267, Jan. […] The samples were analyzed by flow cytometry in the Indiana University Cancer Center flow cytometry facility.

[2] = tested on: rat dorsal root ganglion cells; experiment: MTS cell viability assay of dorsal root ganglion cells; assay type: cell-based
Procedure: APX3330 in combination with chemotherapeutic Cisplatin. […] There was no effect of APX3330 (RN3-3) on the post-mitotic DRG cells, indicative of a non-toxic effect of APX3330 (RN3-3) on non-dividing cells.
DRG cell cultures and treatments were performed similar to previously published procedures using just APX3330 alone (DNA Repair Volume 4, Issue 3, 2 Mar. 2005, pp […]).

endothelial cells = experiment: In vitro tube formation assay; assay type: cell-based
Excerpt: In vitro tube formation assay.

## CCC/C(=C\C1=C(OC)C(=O)c2ccccc2C1=O)C(=O)N(CC)CC [APX2009, [(2E)-2-[(3-methoxy-1,4-dioxo-1,4-dihydronaphthalen-2-yl)methylidene]-N,N-diethylpentanamide]]
RP-B-02 spheroids
  potency in RP-B-02 cells in 3D culture relative to APX3330: more potent in the RP-B-02 cells than parent compound APX3330

## CCCCCCCCC/C(=C\C1=C(C)C(=O)C(OC)=C(OC)C1=O)C(=O)O [APX3330]
[1]; Mus musculus, Endothelial cell, 10 μM, basal media
  inhibition at 10 µM: 57%
[1]; Mus musculus, Endothelial cell, 25 μM, basal media
  inhibition at 25 µM: 93%
[1]; about 10-100 μM, with or without bFGF
  retinal endothelial cell proliferation: decreased retinal endothelial cell proliferation
Pancreatic tumor cells; about 24 and 96 hr
  apoptosis in combination with methoxyamine: enhanced the apoptosis inducing effects of methoxyamine
Pancreatic tumor cells; gemcitabine about 0.25 μM, 24 and 48 hr
  apoptosis in combination with gemcitabine: enhanced the apoptosis inducing effects of gemcitabine
[2]; as high as about 120 μM, up to about 72 hours
  survival of dorsal root ganglion cells: did not impair the survival
[2]; with cisplatin
  protection against cisplatin neurotoxicity: provided protection against the neuro-toxic effects of the chemotherapeutic cisplatin
Endothelial cells; combination use with AVASTIN
  tube formation, combination of AVASTIN and APX3330: synergistically more effective than either alone
Endothelial cells; dose dependent
  formation of blood-vessel-like tubules: prevented formation of blood-vessel-like tubules

Reference: US11331294B2, “Benzoquinone derivative E3330 in combination with chemotherapeutic agents for the treatment of bladder cancer” (Indiana University Research and Technology Corporation, priority 2007, dated 2022)
